In patent US11753403B2, “EIF4E inhibitors and uses thereof” (PIC Therapeutics, Inc., priority 2020, dated 2023):

What follows are compounds tested against Human eIF4E (aa 28-217) / biotin labeled 4G2 peptide (Homo sapiens (Human), UniProt P06730) (assay: Human eIF4E/4G2 binding assay (TR-FRET)). Conditions: Human eIF4E/4G2 TR-FRET binding assay; head says IC50, legend says EC50.
Method in brief: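 Refolded His-tagged human eIF4E (aa 28-217), 82.5 nM working stock, preincubated 4 h at RT with compounds (10-point 2-fold series) in NaPi pH 6.5 buffer with DTT and gamma globulin. Biotin-4G2 peptide then added for 20 min, followed by Eu-streptavidin/APC-anti-His for 20 min; TR-FRET 665/615 nm ratio normalized, IC50 fitted.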

Human eIF4E (aa 28-217) / biotin labeled 4G2 peptide, sequence (P06730 28-217): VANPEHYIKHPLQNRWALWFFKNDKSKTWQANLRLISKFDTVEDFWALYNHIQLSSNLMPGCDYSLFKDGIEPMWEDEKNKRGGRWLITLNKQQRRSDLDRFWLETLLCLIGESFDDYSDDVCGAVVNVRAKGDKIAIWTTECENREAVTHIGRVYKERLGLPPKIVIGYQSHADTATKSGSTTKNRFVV

Row | SMILES | IC50
1 | CS(=O)(=O)c1sc(NCC(Cc2ccccc2)C(=O)O)nc1-c1ccc(Cl)c(Cl)c1 (stereo not drawn) [I-181, 2-benzyl-3-(4-(3,4-dichlorophenyl)-5-(methylsulfonyl)thiazol-2-ylamino)propanoic acid] | > 10 µM
2 | CCOC(=O)c1sc(NCC(Cc2ccccc2)C(=O)O)nc1-c1ccc(Cl)c(Cl)c1 (stereo not drawn) [I-182, 2-benzyl-3-(4-(3,4-dichlorophenyl)-5-(ethoxycarbonyl)thiazol-2-ylamino)propanoic acid] | 1 to 10 µM
3 | O=C(O)c1sc(NCC(Cc2ccccc2)C(=O)O)nc1-c1ccc(Cl)c(Cl)c1 (stereo not drawn) [I-183, 2-(2-carboxy-3-phenylpropylamino)-4-(3,4-dichlorophenyl)thiazole-5-carboxylic acid] | > 10 µM
4 | O=C(O)C(CNc1nc(-c2ccc(Cl)c(Cl)c2)c(CC(F)(F)F)s1)Cc1ccccc1 (stereo not drawn) [I-184, 2-benzyl-3-(4-(3,4-dichlorophenyl)-5-(2,2,2-trifluoroethyl)thiazol-2-ylamino)propanoic acid] | 1 to 10 µM
5 | C=C(C)c1sc(NCC(Cc2ccccc2)C(=O)O)nc1-c1ccc(Cl)c(Cl)c1 (stereo not drawn) [I-185, 2-benzyl-3-(4-(3,4-dichlorophenyl)-5-(prop-1-en-2-yl)thiazol-2-ylamino)propanoic acid] | 1 to 10 µM
6 | CC(C)Cc1sc(N(CCS(=O)(=O)NC(=O)CN)Cc2ccccc2)nc1-c1ccc(Cl)c(Cl)c1 [I-187, 2-amino-N-(2-(benzyl(4-(3,4-dichlorophenyl)-5-isobutylthiazol-2-yl)amino)ethylsulfonyl)acetamide] | > 10 µM
7 | CC(C)Cc1sc(N(CCS(=O)(=O)NC(=O)CCN)Cc2ccccc2)nc1-c1ccc(Cl)c(Cl)c1 [I-188] | > 10 µM
8 | CC(C)Cc1sc(N(CCC(N)=O)Cc2ccccc2)nc1-c1ccc(Cl)c(Cl)c1 [I-189] | > 10 µM
9 | CC(C)Cc1sc(N(Cc2ccccc2)CC(O)C(=O)O)nc1-c1ccc(Cl)c(Cl)c1 (stereo not drawn) [I-190, 3-(benzyl(4-(3,4-dichlorophenyl)-5-isobutylthiazol-2-yl)amino)-2-hydroxypropanoic acid] | ≤ 1 µM
10 | CC(C)Cc1sc(N(CCCN)Cc2ccccc2)nc1-c1ccc(Cl)c(Cl)c1 [I-191, N^1-benzyl-N^1-(4-(3,4-dichlorophenyl)-5-isobutylthiazol-2-yl)propane-1,3-diamine] | 1 to 10 µM
11 | CC(C)Cc1sc(N(CCC(=O)NCCCN)Cc2ccccc2)nc1-c1ccc(Cl)c(Cl)c1 [I-192] | 1 to 10 µM
12 | CC(C)Cc1sc(N(CCC(=O)NCC(N)=O)Cc2ccccc2)nc1-c1ccc(Cl)c(Cl)c1 [I-193] | > 10 µM
13 | CC(C)Cc1sc(N(CCC(=O)NCc2ncc[nH]2)Cc2ccccc2)nc1-c1ccc(Cl)c(Cl)c1 [I-195] | > 10 µM
14 | CC(C)Cc1sc(N(CCC(=O)NCC(=O)O)Cc2ccccc2)nc1-c1ccc(Cl)c(Cl)c1 [I-196] | 1 to 10 µM
15 | CC(C)Cc1sc(N(CCC(=O)NCCNC(=N)N)Cc2ccccc2)nc1-c1ccc(Cl)c(Cl)c1 [I-197, 3-(benzyl(4-(3,4-dichlorophenyl)-5-isobutylthiazol-2-yl)amino)-N-(2-guanidinoethyl) propanamide] | 1 to 10 µM
16 | CC(C)Cc1sc(N(CCC(=O)NS(=O)(=O)CCN)Cc2ccccc2)nc1-c1ccc(Cl)c(Cl)c1 [I-198] | > 10 µM
17 | CC(C)Cc1sc(N2CCN(C(=O)CCN)C(C(=O)O)C2)nc1-c1ccc(Cl)c(Cl)c1 (stereo not drawn) [I-199, 1-(3-aminopropanoyl)-4-(4-(3,4-dichlorophenyl)-5-isobutylthiazol-2-yl)piperazine-2-carboxylic acid] | > 10 µM
18 | CNC(=O)CCN(Cc1ccccc1)c1nc(-c2ccc(Cl)c(Cl)c2)c(CC(C)C)s1 [I-200, 3-(benzyl(4-(3,4-dichlorophenyl)-5-isobutylthiazol-2-yl)amino)-N-methylpropanamide] | > 10 µM
19 | CC(C)Cc1sc(NCc2cccc(O)n2)nc1-c1ccc(Cl)c(Cl)c1 [I-201, 6-((4-(3,4-dichlorophenyl)-5-isobutylthiazol-2-ylamino)methyl)pyridin-2-ol] | > 10 µM

Row | SMILES | IC50
20 | CC(C)Cc1sc(NCc2cccnc2O)nc1-c1ccc(Cl)c(Cl)c1 [I-202] | > 10 µM
21 | CC(C)Cc1sc(-c2cccc(C(=O)O)c2)nc1-c1ccc(Cl)c(Cl)c1 [I-203, 3-(4-(3,4-dichlorophenyl)-5-isobutylthiazol-2-yl)benzoic acid] | 1 to 10 µM
22 | CC(C)Cc1sc(N(CCC(=O)O)Cc2cccc(C(=O)NCCN)c2)nc1-c1ccc(Cl)c(Cl)c1 [I-205, 3-((3-(2-aminoethylcarbamoyl)benzyl)(4-(3,4-dichlorophenyl)-5-isobutylthiazol-2-yl)amino)propanoic acid] | > 10 µM
23 | CSc1sc(NCC(Cc2ccccc2)C(=O)O)nc1-c1ccc(Cl)c(Cl)c1 (stereo not drawn) [I-206, 2-benzyl-3-(4-(3,4-dichlorophenyl)-5-(methylthio)thiazol-2-ylamino)propanoic acid] | 1 to 10 µM
24 | CC(C)Cc1sc(Nc2ccc(O)c(C(=O)O)c2)nc1-c1ccc(Cl)c(Cl)c1 [I-207, 5-(4-(3,4-dichlorophenyl)-5-isobutylthiazol-2-ylamino)-2-hydroxybenzoic acid] | 1 to 10 µM
25 | CC(C)Cc1sc(Nc2ccc(Cl)c(C(=O)O)c2)nc1-c1ccc(Cl)c(Cl)c1 [I-208] | ≤ 1 µM
26 | CC(C)Cc1sc(Nc2ccc(F)c(C(=O)O)c2)nc1-c1ccc(Cl)c(Cl)c1 [I-209] | ≤ 1 µM
27 | COc1ccc(Nc2nc(-c3ccc(Cl)c(Cl)c3)c(CC(C)C)s2)cc1C(=O)O [I-210] | ≤ 1 µM
28 | CC(C)Cc1sc(Nc2ccc(N3CCOCC3)c(C(=O)O)c2)nc1-c1ccc(Cl)c(Cl)c1 [I-211] | > 10 µM
29 | CC(C)Cc1sc(Nc2cc(F)cc(C(=O)O)c2)nc1-c1ccc(Cl)c(Cl)c1 [I-212] | ≤ 1 µM
30 | CC(C)Cc1sc(Nc2cc(C(=O)O)cc(C(F)(F)F)c2)nc1-c1ccc(Cl)c(Cl)c1 [I-213] | ≤ 1 µM
31 | Cc1cc(Nc2nc(-c3ccc(Cl)c(Cl)c3)c(CC(C)C)s2)cc(C(=O)O)c1 [I-214] | 1 to 10 µM
32 | CC(C)Cc1sc(Nc2cc(C(=O)O)cc(-c3ccccc3)c2)nc1-c1ccc(Cl)c(Cl)c1 [I-215, 5-(4-(3,4-dichlorophenyl)-5-isobutylthiazol-2-ylamino)biphenyl-3-carboxylic acid] | ≤ 1 µM
33 | CC(C)Cc1sc(Nc2ccc(-c3ccccc3)c(C(=O)O)c2)nc1-c1ccc(Cl)c(Cl)c1 [I-216] | ≤ 1 µM
34 | CC(C)Cc1sc(Nc2cc(NC(=O)c3ccccc3)cc(C(=O)O)c2)nc1-c1ccc(Cl)c(Cl)c1 [I-217] | ≤ 1 µM
35 | CC(C)Cc1sc(Nc2cccc(C(=O)NCCN)c2)nc1-c1ccc(Cl)c(Cl)c1 [I-218, N-(2-aminoethyl)-3-(4-(3,4-dichlorophenyl)-5-isobutylthiazol-2-ylamino)benzamide] | > 10 µM
36 | CC(C)Cc1sc(Nc2cccc(C(=O)O)n2)nc1-c1ccc(Cl)c(Cl)c1 [I-219] | 1 to 10 µM
37 | CC(C)Cc1sc(Nc2ccnc(C(=O)O)c2)nc1-c1ccc(Cl)c(Cl)c1 [I-220] | 1 to 10 µM
38 | CC(C)Cc1sc(Nc2cncc(C(=O)O)c2)nc1-c1ccc(Cl)c(Cl)c1 [I-221, 5-(4-(3,4-dichlorophenyl)-5-isobutylthiazol-2-ylamino)nicotinic acid] | 1 to 10 µM

Row | SMILES | IC50
39 | CC(C)Cc1sc(Nc2cc(C(=O)O)ccn2)nc1-c1ccc(Cl)c(Cl)c1 [I-222] | 1 to 10 µM
40 | O=C(O)c1cccc(-c2nc(Cc3ccc(Cl)c(Cl)c3)cs2)c1 [I-223, 3-(4-(3,4-dichlorobenzyl)thiazol-2-yl)benzoic acid] | 1 to 10 µM
41 | CC(C)Cc1sc(-c2ccc(Br)c(C(=O)O)c2)nc1-c1ccc(Cl)c(Cl)c1 [I-224, 2-bromo-5-(4-(3,4-dichlorophenyl)-5-isobutylthiazol-2-yl)benzoic acid] | 1 to 10 µM
42 | CC(C)Cc1sc(-c2ccc(-c3ccccc3)c(C(=O)O)c2)nc1-c1ccc(Cl)c(Cl)c1 [I-225] | ≤ 1 µM
43 | CC(C)Cc1sc(-c2ccc(-c3cccnc3)c(C(=O)O)c2)nc1-c1ccc(Cl)c(Cl)c1 [I-226] | ≤ 1 µM
44 | CC(C)Cc1sc(-c2ccc(C(F)(F)F)c(C(=O)O)c2)nc1-c1ccc(Cl)c(Cl)c1 [I-227] | 1 to 10 µM
45 | CC(C)Cc1sc(-c2cccc(C(=O)O)n2)nc1-c1ccc(Cl)c(Cl)c1 [I-228, 6-(4-(3,4-dichlorophenyl)-5-isobutylthiazol-2-yl)picolinic acid] | 1 to 10 µM
46 | CC(C)Cc1sc(-c2ccc(C(=O)O)s2)nc1-c1ccc(Cl)c(Cl)c1 [I-229] | ≤ 1 µM
47 | CC(C)Cc1sc(N(CCC(=N)N)Cc2ccccc2)nc1-c1ccc(Cl)c(Cl)c1 [I-230, 3-(benzyl(4-(3,4-dichlorophenyl)-5-isobutylthiazol-2-yl)amino)propanimidamide] | > 10 µM
48 | CC(C)Cc1sc(N(CC(=N)N)Cc2ccccc2)nc1-c1ccc(Cl)c(Cl)c1 [I-231, 2-(benzyl(4-(3,4-dichlorophenyl)-5-isobutylthiazol-2-yl)amino)acetimidamide] | > 10 µM
49 | CC(C)Cc1sc(N(CCNC(=N)N)Cc2ccccc2)nc1-c1ccc(Cl)c(Cl)c1 [I-232, 2-(2-(benzyl(4-(3,4-dichlorophenyl)-5-isobutylthiazol-2-yl)amino)ethyl)guanidine] | 1 to 10 µM
50 | CC(C)Cc1sc(Nc2ncccc2C(=O)O)nc1-c1ccc(Cl)c(Cl)c1 [I-233] | ≤ 1 µM
51 | CC(C)Cc1sc(Nc2cccnc2C(=O)O)nc1-c1ccc(Cl)c(Cl)c1 [I-234, 3-(4-(3,4-dichlorophenyl)-5-isobutylthiazol-2-ylamino)picolinic acid] | 1 to 10 µM
52 | CC(C)Cc1sc(Nc2ccc(-c3ccccc3)cc2C(=O)O)nc1-c1ccc(Cl)c(Cl)c1 [I-235] | ≤ 1 µM
53 | CC(C)Cc1sc(Nc2cccc(C(F)(F)F)c2C(=O)O)nc1-c1ccc(Cl)c(Cl)c1 [I-236] | ≤ 1 µM
54 | CC(C)Cc1sc(-c2cc(C(=O)O)ccn2)nc1-c1ccc(Cl)c(Cl)c1 [I-238] | 1 to 10 µM
55 | CC(C)Cc1sc(Nc2nnccc2C(=O)O)nc1-c1ccc(Cl)c(Cl)c1 [I-239] | 1 to 10 µM
56 | CC(C)Cc1sc(-c2cc(C(=O)O)c(F)cn2)nc1-c1ccc(Cl)c(Cl)c1 [I-240] | 1 to 10 µM
57 | CC(C)Cc1sc(Nc2nccc(-c3ccccc3)c2C(=O)O)nc1-c1ccc(Cl)c(Cl)c1 [I-241] | ≤ 1 µM
